Measurements taken from patent US9510598B2, “Nitrogen-containing heterocyclic compounds for plant disease control” (BAYER CROPSCIENCE AG, priority 2012, dated 2016).
Values joined by “and” are separate entries in the source; they are usually repeats but may differ in a detail not shown here. Identical values can stand only once.

Settings: Table 2, formula (II); method [a]: pH 2.7, 0.1% formic acid in water / acetonitrile gradient
Experimental: Measurement of log P values was performed according EEC directive 79/831 Annex V.A8 by HPLC (High Performance Liquid Chromatography) on reversed phase columns with the following methods: ^[a]

| Compound | Log P |
| --- | --- |
| C#Cc1cnc2c(C)cc(C3=NOC(C)(C(=O)OC)C3)cc2c1 (stereo not shown) [II-74] | 3.07[a] |
| CSC1(C(=O)O)CC(c2ccc3ncc(Br)cc3c2)=NO1 (stereo not shown) [II-88] | 2.01[a] |
| C=C(Cl)C1(C(=O)OC)CC(c2ccc3ncc(Br)cc3c2)=NO1 (stereo not shown) [II-70] | 3.68[a] |
| COC(=O)C1(C)CC(c2ccc3nc(Cl)c(I)cc3c2)=NO1 (stereo not shown) [II-60] | 3.34 and 3.62 |
| COC(=O)CC1(C(=O)O)CC(c2ccc3ncc(Br)cc3c2)=NO1 (stereo not shown) [II-50] | 1.98[a] |
| COC(=O)C1(C(F)(F)F)CC(c2cc3cc(Br)cnc3c(F)c2F)=NO1 (racemic) [II-22] | 3.72[a] |
| COC(=O)C1(C)CC(c2ccc3ncc(C#C[Si](C)(C)C)cc3c2)=NO1 (stereo not shown) [II-26] | 4.31[a] |
| COC(=O)C1(C)CC(c2ccc3ncc(Br)c(Cl)c3c2)=NO1 (stereo not shown) [II-95] | 3.29[a] |
| COC(=O)C1(C)CC(c2ccc3ncc(I)cc3c2)=NO1 (stereo not shown) [II-30] | 2.71[a] |
| COC(=O)C1(C)CC(c2ccc3nc(C#N)c(Br)cc3c2)=NO1 (stereo not shown) [II-47] | 3.02[a] |
| C#Cc1cc2cc(C3=NOC(C)(C(=O)OC)C3)ccc2nc1Cl (stereo not shown) [II-56] | 3.01[a] |
| C#Cc1cnc2c(Cl)cc(C3=NOC(C)(C(=O)OC)C3)cc2c1 (stereo not shown) [II-75] | 2.92[a] |
| COC(=O)C1(C)CC(c2cc3cc(Br)cnc3cc2F)=NO1 (stereo not shown) [II-34] | 2.94[a] |
| COC(=O)C1(C(C)O)CC(c2ccc3ncc(Br)cc3c2)=NO1 (mixture of isomers) [II-19] | 2.18[a] |
| O=C(O)C1(C(F)(F)F)CC(c2cc3cc(Br)cnc3c(F)c2F)=NO1 (racemic) [II-13] | 2.01[a] |
| CCOC(=O)C1(C[Si](C)(C)C)CC(c2ccc3ncc(Br)cc3c2)=NO1 (stereo not shown) [II-58] | 3.80[a] |
| C=C(C)C1(C(=O)OC)CC(c2ccc3ncc(Br)cc3c2)=NO1 (stereo not shown) [II-72] | 3.44[a] |
| COC(=O)C1(CO)CC(c2ccc3ncc(Br)cc3c2)=NO1 (stereo not shown) [II-52] | 1.99[a] |
| CC(O)C1(C(=O)O)CC(c2ccc3ncc(Br)cc3c2)=NO1 (mixture of isomers) [II-77] | 1.60 and 1.65 |
| CC1(C(=O)O)CC(c2cc(Cl)c3ncc(Br)cc3c2)=NO1 (stereo not shown) [II-79] | 2.45[a] |
| COC(=O)C1(OC)CC(c2ccc3ncc(Br)cc3c2)=NO1 (stereo not shown) [II-25] | 3.29[a] |
| CCC1(C(=O)O)CC(c2ccc3ncc(Br)cc3c2)=NO1 (stereo not shown) [II-64] | 2.30[a] |
| CCOC(=O)C1(CC)CC(c2ccc3ncc(C#C[Si](C)(C)C)cc3c2)=NO1 (stereo not shown) [II-67] | 5.19[a] |
| COC(=O)C1(C)CC(c2ccc3nc(O)c(Br)cc3c2)=NO1 (stereo not shown) [II-45] | 1.74[a] |
| COC(=O)C1(C)CC(c2ccc3ncc(Br)cc3c2)=NO1 (stereo not shown) [II-33] | 2.69[a] |
| C[Si](C)(C)CC1(C(=O)O)CC(c2ccc3ncc(Br)cc3c2)=NO1 (stereo not shown) [II-54] | 3.42[a] |
| COC(=O)C12ON=C(c3ccc4ncc(Br)cc4c3)C1C2C (stereo not shown) [II-51] | 3.09[a] |
| O=C(O)C1(CC2CC2)CC(c2ccc3ncc(Br)cc3c2)=NO1 (stereo not shown) [II-66] | 2.70[a] |
| CCOC(=O)C1(CF)CC(c2ccc3ncc(Br)cc3c2)=NO1 (stereo not shown) [II-62] | 3.13[a] |
| COC1(C(=O)O)CC(c2cc(Cl)c3ncc(Br)cc3c2)=NO1 (stereo not shown) [II-89] | 2.19[a] |

Same assay, conditions: Table 3, formula (V); method [a]: pH 2.7, 0.1% formic acid in water / acetonitrile gradient

| Compound | Log P |
| --- | --- |
| ON=C(Cl)c1ccc2ncc(Br)c(Cl)c2c1 [V-22] | 3.16[a] |
| ON=Cc1ccc2ncc(I)cc2c1 [V-07] | 1.98[a] |
| ON=Cc1cc2cc(Br)cnc2cc1F [V-05] | 2.21[a] |
| ON=Cc1cc2cccnc2c(F)c1F [V-01] | 1.48[a] |
| Cc1cc(C(Cl)=NO)cc2cc(Br)cnc12 [V-19] | 3.37[a] |
| ON=Cc1ccc2ncc(I)cc2c1 [V-13] | 2.08[a] |
| C#Cc1cnc2c(C)cc(C=NO)cc2c1 [V-15] | 2.21[a] |
| ON=Cc1cc(F)c2ncc(Br)cc2c1 [V-23] | 2.08[a] |
| ON=C(Cl)c1cc2cc(Br)cnc2c(F)c1F [V-03] | 2.92[a] |
| ON=Cc1ccc2ncc(Br)c(Cl)c2c1 [V-21] | 2.43[a] |
